Assay results reported in publication PMC4710522, “A Novel Triazolopyridine-Based Spleen Tyrosine Kinase Inhibitor That Arrests Joint Inflammation” (PLoS ONE, 2016).
Values joined by “and” are separate entries in the source; they are usually repeats but may differ in a detail not shown here. Equal entries are not always repeated. Where two headings read alike, the source gives them in different places.

Columns and labels:
[1] = target: T1, Arg_m (Mus musculus, UniProt Q4JIM5); test: SelectScreen kinase assay; assay type: biochemical; conditions: KM ATP
T1 construct: purchased Life Technologies (Invitrogen) SelectScreen, Z'-LYTE / Adapta
Procedure: (§1) Syk kinase mode of inhibition studies, including parameters described in Fig 1, were conducted on the LC3000 platform by Caliper Life Sciences (Hopkinton, MA) according to standard protocols developed by the supplier. […] Non-kinase enzyme assays and GPCR, ion channel, and transporter binding assays were run by CEREP (France). Non-GLP manual patch clamp hERG assays were run by ChanTest (Cleveland, Ohio). Vivid® Assay kits (Life Technologies) were used to measure the cytochrome P450 inhibition of the compound against CYP3A, CYP2C9, CYP2C19, CYP2D6, and CYP1A2, as described.
(§2) Kinase activity was measured using either the Z’-Lyte® or the Adapta® protocols as part of the SelectScreen™ profiling service offered at Life Technologies (Grand Island, NY). For the single point measurements (Part A), CC-509 was kept constant at 3 µM while ATP concentrations [ATP] used were at the KM for ATP (KM ATP) for that specific enyzme, at 10 or 100 µM ATP (10 ATP or 100 ATP, respectively), as indicated. Values expressed as percent control (% control) relative to DMSO-only wells (uninhibited, 100%).
(§3) Kinase activity was measured using either the Z’-Lyte® or the Adapta® protocols as part of the SelectScreen™ profiling service offered at Life Technologies (Grand Island, NY). […] Values expressed as percent control (% control) relative to DMSO-only wells (uninhibited, 100%).

[2] = target: T2, Blk_m (Mus musculus, UniProt P16277); test: SelectScreen kinase assay; assay type: biochemical; conditions: KM ATP
T2 construct: purchased Life Technologies (Invitrogen) SelectScreen, Z'-LYTE / Adapta
Procedure: as §1, §2, §3

[3] = target: T3, CDK1_cyclinB_h (Homo sapiens, UniProt P06493); test: SelectScreen kinase assay; assay type: biochemical; conditions: KM ATP
T3 construct: purchased Life Technologies (Invitrogen) SelectScreen, Z'-LYTE / Adapta
Procedure: as §1, §2, §3

[4] = target: T4, DYRK3_h (Homo sapiens, UniProt O43781); test: SelectScreen kinase assay; assay type: biochemical; conditions: KM ATP
T4 construct: purchased Life Technologies (Invitrogen) SelectScreen, Z'-LYTE / Adapta
Procedure: as §1, §2, §3

[5] = target: T5, DYRK4_h (Homo sapiens, UniProt Q9NR20); test: SelectScreen kinase assay; assay type: biochemical; conditions: KM ATP
T5 construct: purchased Life Technologies (Invitrogen) SelectScreen, Z'-LYTE / Adapta
Procedure: as §1, §2, §3

[6] = target: T6, EEF2K_h (Homo sapiens, UniProt O00418); test: SelectScreen kinase assay; assay type: biochemical; conditions: KM ATP
T6 construct: purchased Life Technologies (Invitrogen) SelectScreen, Z'-LYTE / Adapta
Procedure: as §1, §2, §3

[7] = target: T7, GRK2_h (Homo sapiens, UniProt P25098); test: SelectScreen kinase assay; assay type: biochemical; conditions: KM ATP
T7 construct: purchased Life Technologies (Invitrogen) SelectScreen, Z'-LYTE / Adapta
Procedure: as §1, §2, §3

[8] = target: T8, GRK3_h (Homo sapiens, UniProt P35626); test: SelectScreen kinase assay; assay type: biochemical; conditions: KM ATP
T8 construct: purchased Life Technologies (Invitrogen) SelectScreen, Z'-LYTE / Adapta
Procedure: as §1, §2, §3

[9] = target: T9, GRK5_h (Homo sapiens, UniProt P34947); test: SelectScreen kinase assay; assay type: biochemical; conditions: KM ATP
T9 construct: purchased Life Technologies (Invitrogen) SelectScreen, Z'-LYTE / Adapta
Procedure: as §1, §2, §3

[10] = target: T10, GRK6_h (Homo sapiens, UniProt P43250); test: SelectScreen kinase assay; assay type: biochemical; conditions: KM ATP
T10 construct: purchased Life Technologies (Invitrogen) SelectScreen, Z'-LYTE / Adapta
Procedure: as §1, §2, §3

[11] = target: T11, GSG2 _h (Homo sapiens, UniProt Q8TF76); test: SelectScreen kinase assay; assay type: biochemical; conditions: KM ATP
T11 construct: purchased Life Technologies (Invitrogen) SelectScreen, Z'-LYTE / Adapta
Procedure: as §1, §2, §3

[12] = target: T12, MAPKAP-K3_h (Homo sapiens, UniProt Q16644); test: SelectScreen kinase assay; assay type: biochemical; conditions: KM ATP
T12 construct: purchased Life Technologies (Invitrogen) SelectScreen, Z'-LYTE / Adapta
Procedure: as §1, §2, §3

[13] = target: T13, PKC-betaII_h (Homo sapiens, UniProt P05771); test: SelectScreen kinase assay; assay type: biochemical; conditions: KM ATP
T13 construct: purchased Life Technologies (Invitrogen) SelectScreen, Z'-LYTE / Adapta
Procedure: as §1, §2, §3

[14] = target: T14, PKC-gamma_h (Homo sapiens, UniProt P05129); test: SelectScreen kinase assay; assay type: biochemical; conditions: KM ATP
T14 construct: purchased Life Technologies (Invitrogen) SelectScreen, Z'-LYTE / Adapta
Procedure: as §1, §2, §3

[15] = target: T15, PKC-zeta_h (Homo sapiens, UniProt Q05513); test: SelectScreen kinase assay; assay type: biochemical; conditions: KM ATP
T15 construct: purchased Life Technologies (Invitrogen) SelectScreen, Z'-LYTE / Adapta
Procedure: as §1, §2, §3

[16] = target: T16, SGK2_h (Homo sapiens, UniProt Q9HBY8); test: SelectScreen kinase assay; assay type: biochemical; conditions: KM ATP
T16 construct: purchased Life Technologies (Invitrogen) SelectScreen, Z'-LYTE / Adapta
Procedure: as §1, §2, §3

[17] = target: T17, TSSK2_h (Homo sapiens, UniProt Q96PF2); test: SelectScreen kinase assay; assay type: biochemical; conditions: KM ATP
T17 construct: purchased Life Technologies (Invitrogen) SelectScreen, Z'-LYTE / Adapta
Procedure: as §1, §2, §3

[18] = test system: panel of 256 kinases; test: commercial panel of 256 kinases (SelectScreen), overall kinome selectivity; assay type: biochemical; conditions: for number of kinases inhibited by >80% of 256 kinases: 3 μM
Procedure: as §1, §2, §3

[19] = test system: FcγR-induced TNFα production in primary human macrophage; test: primary human macrophage assay, anti-IgG stimulated TNF secretion; assay type: cell-based
Procedure: Mobilized CD14-positive monocytes were plated in 96-well flat bottom plates in RPMI media supplemented with 100 ng/ml GM-CSF for 5 days. The plates were preincubated with CC-509 at indicated concentrations for 30 minutes. Biotinylated anti-IgG and streptavidin at 10 μg/ml final concentrations were thoroughly mixed, added to appropriate wells on the cell plate, and plate placed back in tissue culture incubator 8 hours. Following incubation, supernatants were collected and processed for TNFα Mesoscale single-plex cytokine assay as described by manufacturer (Mesoscale, Gaithersberg, MD). Briefly, the plates were incubated with sample or calibrator for 2 hours on an orbital shaker at room temperature. The detection antibody was added to all wells, the plate incubated for 2 hours at room temperature on an orbital shaker, and washed three times. Diluted Mesoscale detection solution was added to all wells and the plates were read on the Sector Imager instrument (Mesoscale, Gaithersberg, MD) plate reader.
For the TEL-Syk assay, the intensity values for the 700 and 800 channel were exported as text files in ActivityBase (IDBS, Guildford, UK) to derive the ratios that reflect kinase activity. For LAD2 experiments, enzyme activity values were exported as text files into ActivityBase to calculate “percent release” according to the formula: 100* supernatant OD405/ (supernatant OD405 + (pellet OD405*pellet dilution factor)). For the basophil and B-cells assays, flow cytometry data was exported from the FACS Array and processed using FloJo software package (TreeStar, Inc., Ashland, Oregon). For the JAK2 HEL and Ramos NFAT β-lactamase assays, the fluorescence values obtained at 460 nm and 530 nm were exported into ActivityBase to calculate response ratios. […] Evans blue dye extravasation was expressed as mean ± SEM and % inhibition for the test article groups was normalized to the cromolyn positive control. […] The mean data from each group was plotted and either the AUC(day 11–18) or % inhibition on day 18 was calculated. Data is expressed as mean ± SEM of each group with n = 6–12. […]

T15 sequence (Q05513 whole entry): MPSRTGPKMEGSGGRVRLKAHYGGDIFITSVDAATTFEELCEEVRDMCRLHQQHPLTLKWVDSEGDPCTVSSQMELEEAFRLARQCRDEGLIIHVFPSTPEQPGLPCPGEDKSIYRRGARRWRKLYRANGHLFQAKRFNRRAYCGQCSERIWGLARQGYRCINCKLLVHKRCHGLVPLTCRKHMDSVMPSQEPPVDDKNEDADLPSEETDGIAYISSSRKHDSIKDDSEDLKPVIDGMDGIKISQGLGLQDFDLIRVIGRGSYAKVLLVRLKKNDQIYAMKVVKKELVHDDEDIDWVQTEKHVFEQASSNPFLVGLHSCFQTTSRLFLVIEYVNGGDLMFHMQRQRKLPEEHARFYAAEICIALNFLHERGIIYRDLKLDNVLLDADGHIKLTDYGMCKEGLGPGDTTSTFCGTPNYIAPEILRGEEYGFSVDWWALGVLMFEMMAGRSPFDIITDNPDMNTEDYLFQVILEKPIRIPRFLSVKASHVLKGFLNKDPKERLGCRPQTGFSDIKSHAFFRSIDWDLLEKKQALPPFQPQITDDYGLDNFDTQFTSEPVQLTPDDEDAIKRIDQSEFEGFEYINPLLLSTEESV
T16 sequence (Q9HBY8 whole entry): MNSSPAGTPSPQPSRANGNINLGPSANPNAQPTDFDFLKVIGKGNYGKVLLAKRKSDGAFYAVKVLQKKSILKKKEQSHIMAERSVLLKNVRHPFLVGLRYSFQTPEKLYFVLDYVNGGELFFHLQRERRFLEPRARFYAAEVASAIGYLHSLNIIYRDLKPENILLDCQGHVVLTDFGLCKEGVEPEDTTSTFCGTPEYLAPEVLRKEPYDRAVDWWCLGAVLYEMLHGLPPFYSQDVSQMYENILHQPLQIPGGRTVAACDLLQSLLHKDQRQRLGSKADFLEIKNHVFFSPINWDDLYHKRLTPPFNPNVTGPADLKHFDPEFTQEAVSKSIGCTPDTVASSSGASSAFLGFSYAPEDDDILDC
T10 sequence (P43250 whole entry): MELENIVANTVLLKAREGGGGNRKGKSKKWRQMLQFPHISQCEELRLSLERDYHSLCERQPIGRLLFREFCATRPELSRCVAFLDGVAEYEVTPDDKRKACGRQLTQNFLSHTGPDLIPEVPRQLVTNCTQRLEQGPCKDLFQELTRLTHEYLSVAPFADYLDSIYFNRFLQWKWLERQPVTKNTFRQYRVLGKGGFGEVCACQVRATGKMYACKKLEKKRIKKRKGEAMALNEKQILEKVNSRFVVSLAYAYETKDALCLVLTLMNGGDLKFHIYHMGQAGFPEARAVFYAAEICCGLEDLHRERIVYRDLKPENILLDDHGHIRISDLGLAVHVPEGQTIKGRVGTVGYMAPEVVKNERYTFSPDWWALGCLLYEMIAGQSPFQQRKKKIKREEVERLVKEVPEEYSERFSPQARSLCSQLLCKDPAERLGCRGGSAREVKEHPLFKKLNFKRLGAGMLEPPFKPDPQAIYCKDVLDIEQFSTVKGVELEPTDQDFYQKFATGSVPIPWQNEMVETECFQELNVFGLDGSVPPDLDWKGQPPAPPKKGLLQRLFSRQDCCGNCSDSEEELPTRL
T5 sequence (Q9NR20 whole entry): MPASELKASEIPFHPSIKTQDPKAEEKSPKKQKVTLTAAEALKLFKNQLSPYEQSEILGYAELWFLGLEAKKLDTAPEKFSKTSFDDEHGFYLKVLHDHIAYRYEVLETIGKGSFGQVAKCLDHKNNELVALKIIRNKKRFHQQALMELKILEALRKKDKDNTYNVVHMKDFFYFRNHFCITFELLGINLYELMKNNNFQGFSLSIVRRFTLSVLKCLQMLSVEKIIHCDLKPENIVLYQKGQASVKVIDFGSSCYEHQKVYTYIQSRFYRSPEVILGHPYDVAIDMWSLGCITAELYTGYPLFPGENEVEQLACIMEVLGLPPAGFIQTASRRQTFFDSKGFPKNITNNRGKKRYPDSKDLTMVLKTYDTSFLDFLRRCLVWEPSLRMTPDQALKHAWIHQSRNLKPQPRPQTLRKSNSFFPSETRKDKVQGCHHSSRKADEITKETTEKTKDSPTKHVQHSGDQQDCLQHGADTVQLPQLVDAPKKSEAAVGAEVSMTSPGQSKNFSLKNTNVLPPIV
T12 sequence (Q16644 whole entry): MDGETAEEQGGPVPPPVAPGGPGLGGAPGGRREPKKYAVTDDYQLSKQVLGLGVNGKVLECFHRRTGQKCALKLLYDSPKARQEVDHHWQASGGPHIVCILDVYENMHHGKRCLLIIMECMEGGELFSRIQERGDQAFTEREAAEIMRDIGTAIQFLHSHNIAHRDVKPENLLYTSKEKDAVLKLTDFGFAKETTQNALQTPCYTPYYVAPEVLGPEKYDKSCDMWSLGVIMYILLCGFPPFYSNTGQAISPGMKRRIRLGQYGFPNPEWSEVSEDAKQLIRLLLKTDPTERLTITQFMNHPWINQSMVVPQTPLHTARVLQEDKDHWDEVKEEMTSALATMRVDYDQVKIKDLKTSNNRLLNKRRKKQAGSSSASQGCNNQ
T4 sequence (O43781 whole entry): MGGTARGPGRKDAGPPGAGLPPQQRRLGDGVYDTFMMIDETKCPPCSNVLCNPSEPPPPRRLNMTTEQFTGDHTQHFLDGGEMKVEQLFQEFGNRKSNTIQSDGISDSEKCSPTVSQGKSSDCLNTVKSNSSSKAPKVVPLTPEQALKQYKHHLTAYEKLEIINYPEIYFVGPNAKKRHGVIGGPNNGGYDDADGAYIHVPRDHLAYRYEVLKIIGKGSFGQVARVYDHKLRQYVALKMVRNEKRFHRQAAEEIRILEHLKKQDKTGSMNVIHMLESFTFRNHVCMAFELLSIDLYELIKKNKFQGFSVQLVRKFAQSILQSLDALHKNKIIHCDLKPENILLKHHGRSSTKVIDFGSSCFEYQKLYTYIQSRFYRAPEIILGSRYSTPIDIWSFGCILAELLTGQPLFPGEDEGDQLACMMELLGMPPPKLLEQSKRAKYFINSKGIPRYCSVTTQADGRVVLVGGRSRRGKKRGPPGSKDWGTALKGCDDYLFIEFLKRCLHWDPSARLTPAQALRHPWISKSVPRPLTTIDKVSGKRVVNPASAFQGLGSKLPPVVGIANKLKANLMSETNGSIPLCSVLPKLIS
T2 sequence (P16277 2-499): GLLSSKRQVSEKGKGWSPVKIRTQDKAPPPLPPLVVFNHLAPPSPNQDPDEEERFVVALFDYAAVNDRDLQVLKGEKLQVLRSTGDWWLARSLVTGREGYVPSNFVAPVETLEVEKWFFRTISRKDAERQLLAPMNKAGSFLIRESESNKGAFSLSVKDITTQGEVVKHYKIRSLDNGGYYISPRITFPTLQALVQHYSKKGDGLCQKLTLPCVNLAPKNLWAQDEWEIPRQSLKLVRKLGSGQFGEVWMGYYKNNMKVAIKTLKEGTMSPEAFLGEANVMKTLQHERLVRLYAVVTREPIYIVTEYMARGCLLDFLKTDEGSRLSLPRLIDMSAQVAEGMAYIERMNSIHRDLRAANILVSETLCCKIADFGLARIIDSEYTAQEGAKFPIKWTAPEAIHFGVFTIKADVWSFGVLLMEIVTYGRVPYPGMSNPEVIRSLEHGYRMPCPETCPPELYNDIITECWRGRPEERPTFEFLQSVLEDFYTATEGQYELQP
T9 sequence (P34947 whole entry): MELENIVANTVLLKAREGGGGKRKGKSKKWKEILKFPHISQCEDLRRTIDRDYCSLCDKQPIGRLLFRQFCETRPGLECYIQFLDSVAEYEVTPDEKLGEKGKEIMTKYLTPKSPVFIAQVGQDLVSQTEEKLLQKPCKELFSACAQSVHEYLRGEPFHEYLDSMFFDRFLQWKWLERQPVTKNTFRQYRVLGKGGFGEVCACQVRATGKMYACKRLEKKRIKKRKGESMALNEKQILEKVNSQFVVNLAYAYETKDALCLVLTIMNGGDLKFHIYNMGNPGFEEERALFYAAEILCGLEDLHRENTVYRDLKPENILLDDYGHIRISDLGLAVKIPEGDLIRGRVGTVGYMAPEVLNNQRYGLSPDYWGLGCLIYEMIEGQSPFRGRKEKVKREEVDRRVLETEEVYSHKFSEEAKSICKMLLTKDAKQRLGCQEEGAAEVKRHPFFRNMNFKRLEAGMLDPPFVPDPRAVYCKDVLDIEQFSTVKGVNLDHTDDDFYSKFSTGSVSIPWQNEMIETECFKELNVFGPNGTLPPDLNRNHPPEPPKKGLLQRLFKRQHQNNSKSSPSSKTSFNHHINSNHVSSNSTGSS

c1cc(CC2CCOCC2)n2nc(Nc3ccc4c(NC5CCOCC5)n[nH]c4c3)nc2c1 [CC-509, [3-(2H-3,4,5,6-tetrahydropyran-4-ylamino)(1H-indazol-6-yl)][5-(2H-3,4,5,6-tetrahydropyran-4-ylmethyl)(2H-1,2,4-triazolo[1,5-a]pyridin-2-yl)]amine]
remaining activity at 3 µM ([1]; read-out: % control): 31%
remaining activity at 3 µM ([2]; read-out: % control): 63%
remaining activity at 3 µM ([3]; read-out: % control): 82%
remaining activity at 3 µM ([4]; read-out: % control): 80%
remaining activity at 3 µM ([5]; read-out: % control): 97%
remaining activity at 3 µM ([6]; read-out: % control): 94%
remaining activity at 3 µM ([7]; read-out: % control): 82%
remaining activity at 3 µM ([8]; read-out: % control): 98%
remaining activity at 3 µM ([9]; read-out: % control): 96%
remaining activity at 3 µM ([10]; read-out: % control): 92%
remaining activity at 3 µM ([11]; read-out: % control): 100%
remaining activity at 3 µM ([12]; read-out: % control): 88%
remaining activity at 3 µM ([13]; read-out: % control): 43%
remaining activity at 3 µM ([14]; read-out: % control): 45%
remaining activity at 3 µM ([15]; read-out: % control): 86%
remaining activity at 3 µM ([16]; read-out: % control): 89%
remaining activity at 3 µM ([17]; read-out: % control): 93%
number of kinases inhibited by >80% of 256 kinases [18]: 27
Gini score ([18]; calculated from activity in the kinase panel at 3 μM): 0.53
IC50 ([19]; Homo sapiens, Macrophage, mean ± SD, minimum n = 3, read-out: IC50, TNFα production induced by FcγR cross-linking): 170 ± 120 nM
IC50 ([19]; Homo sapiens, Macrophage FcγR, curve shown in figure, read-out: IC50 printed in Fig 3A panel): 110 nM

COc1cc(Nc2ncc(F)c(Nc3ccc4c(n3)NC(=O)C(C)(C)O4)n2)cc(OC)c1OC [R406, reference compound]
% control ([1]; 3 µM): 34%
% control ([2]; 3 µM): 11%
% control ([3]; 3 µM): 68%
% control ([4]; 3 µM): 90%
% control ([5]; 3 µM): 69%
% control ([6]; 3 µM): 92%
% control ([7]; 3 µM): 99%
% control ([8]; 3 µM): 103%
% control ([9]; 3 µM): 108%
% control ([10]; 3 µM): 100%
% control ([11]; 3 µM): 64%
% control ([12]; 3 µM): 96%
% control ([13]; 3 µM): 19%
% control ([14]; 3 µM): 16%
% control ([15]; 3 µM): 100% and 101%
% control ([16]; 3 µM): 92%
% control ([17]; 3 µM): 96%
number of kinases inhibited by >80% of 256 kinases [18]: 75
IC50 ([19]; mean ± SD, minimum n = 3, read-out: IC50, TNFα production induced by FcγR cross-linking): 290 ± 160 nM
